These results are taken from patent publication US20170327494A1, “NON-INVASIVE VENTILATION WITH HIGH FREQUENCY OSCILLATIONS” (KONINKLIJKE PHILIPS N.V., priority 2014, published 2017).

One may read the melting point as the temperature, or range, at which the solid turns liquid.

The structures appear in SMILES notation.

In turn, `N#C/C(=C1/SCC(c2cc(Cl)sc2Cl)S1)n1ccnc1` (stereo not shown) [I.h.25, (2E)-2-[4-(2,5-dichloro-3-thienyl)-1,3-dithiolan-2-ylidene]-2-imidazol-1-yl-acetonitrile] displayed a melting point of 117 to 119 °C.
